Key:
[1] = tested on: actively sensitized guinea pigs; experiment: Inhibition of antigen-induced immediate asthmatic response (airway resistance, Konzett-Rossler); format: in vivo, Hartley guinea pigs; details: Cavia porcellus, oral, 60 minutes prior to antigen-challenge, reduction of increase in airway resistance, read-out: Inhibition of Asthmatic response ED50: mg/kg orally
Description: Male Hartley outbred guinea pigs were sensitized by administering intraperitoneally physiological saline (0.5 ml) containing ovalbumin (1 mg, antigen) and 5×10^9 inactivated Bordetella pertussis dead cells (adjuvant). Eleven to thirteen days after the first sensitization, 0.05 ml of an ovalbumin solution (1 mg/ml) (ovalbumin is dissolved in physiological saline) was administered to the lateroabdominal region of each guinea pig intracutaneously. An establishment of sensitization was checked relying on cutaneous reaction. Only guinea pigs wherein significant reddening responses occurred 5 to 10 minutes later were employed in the next measurement test for airway resistance.
The guinea pigs (3 animals per group) actively sensitized in the above step (1) were employed to measure for their airway pressure according to Konzett-Rossler method (Arch. Exp. Path. Pharmakol., 195, 71 (1940)).
Thirteen days after the final sensitization, guinea pigs fasted overnight, and were on the next day anesthetized with a pentobarbital solution (30 mg/1.2 ml/kg, dissolved in physiological saline, intraperitoneal administration). After the guinea pigs were fixed in a supine position, their trachea was incised followed by insertion with one port of a 4-port cannula. Among the remaining 3 ports, 2 ports were connected to an artificial respirator (Model 683, Harvard). The animals were ventilated with 10 ml/kg of air per ventilation at a rate of 60 beats/min via the artificial respirator from the cannula. One port remainder was connected to a respiratory amplifier (AR-601G, Nihon Kohden, Japan) via an airflow resistance tube (TV-241T, Nihon Kohden, Japan) and a differential pressure transducer (TP-602T, Nihon Kohden, Japan) connected with a control box (RY-111S, Nihon Kohden, Japan). From a catheter inserted into a left carotid artery, blood pressures were monitored with a blood pressure measurement unit (AP641G, NEC Corp., Japan) via a blood pressure transducer (TP-300T, Nihon Kohden, Japan), and heart rates were recorded on a thermal recorder (WT-685G, Nihon Kohden, Japan), relying on blood pressure pulse waves after being led to a cardiograph unit (AT601G, Nihon Kohden, Japan).
After airway pressure became stable, an ovalbumin solution (1 mg/ml, dissolved in physiological saline) was administered at a dose of 1 ml/kg via a tube with which the right jugular vein of guinea pigs was cannulated.
Each test compound was suspended in 0.5% CMC-Na solution and administered orally with an oral sound at a dose of 0.03 to 20 mg/2 ml/kg 60 minutes prior to the antigen-challenge. Control groups received only 0.5% CMC-Na solution in an equivalent amount. The pentobarbital-anesthetization and tracheal incision were conducted 30 minutes prior to the antigen-challenge.
Each percent reduction of increase in airway resistance (each test compound-administered group versus control group) was calculated according to the equation given below. ED50 was obtained by Probit method.

TNF-α production = experiment: Inhibition of TNF-α production in galactosamine- and LPS-stimulation; format: in vivo; details: Mus musculus; C3H/HeN mice, oral, 1 hour before galactosamine/LPS i.v.; serum TNF-α by ELISA 1 hour later; read-out: Inhibition of TNF-α production ED50: mg/kg orally
Description: A suspension of each test compound in 0.5% CMC-Na solution was administered orally to C3H/HeN mice at a dose of 0.10 to 10 mg/kg. One hour later, the animals received intravenously galactosamine at a dose of 800 mg/kg and LPS at a dose 5 μg/kg to raise the induction of TNF-α production. One hour later after the galactosamine- and LPS-administration, amounts of TNF-α in serum samples were measured by ELISA, and ED50 was obtained. Roflumilast and SB207499 were used for the reference compounds in this assay.

[2] = tested on: lung neutrophil infiltration; experiment: Inhibition of lung neutrophil infiltration (LPS inhalation, BALF); format: in vivo, Hartley guinea-pigs; details: Cavia porcellus, guinea-pigs, oral, 1 hour before LPS inhalation, BALF neutrophils at 24 hours, read-out: Inhibition of Lung Neutrophil Infiltration ED50: mg/kg orally
Description: Hartley guinea-pigs were orally received a suspension of test compounds at a dose of 0.03 to 3 mg/2 mL/kg. One hour later, the animals were received 0.1 mg/mL lipopolylsaccharide (LPS) in a physiological saline via an inhalational route with a nebulizer for 30 minutes. Twenty-four hours after the LPS inhalation, BALF samples were collected, and neutrophils were counted.

Beagle dogs = experiment: Emetic action on dogs; format: in vivo; details: oral, 1 mg/kg
Description: Beagle dogs received a suspension of each test compound in 0.5% CMC-Na solution orally at a dose of 1 mg/2 mL/kg.

ICR mice = experiment: Toxicology study (1-week administration to mice); format: in vivo; details: oral, 100 or 300 mg/10 ml/kg, one week
Description: The Compound of the present invention (Example No. 9) was administered orally to ICR mice (5 animals per group) as a test compound. […] The test compound was suspended in 0.5% CMC-Na solution and given orally to the animal at a dose of 100 or 300 mg/10 ml/kg in a forced manner.

O=c1c2c(Cc3ccc(F)cc3)n[nH]c2c2cccnc2n1-c1ccccc1 [Example No. 33, 3-(4-fluorobenzyl)-5-phenyl-1H-pyrazolo[4,3-c][1,8]naphthyridin-4 (5H)-one] was tested. Which ED50 [1] did it give?
Its ED50 is 0.33 mg/kg.

What about the ED50 (TNF-α production) of the same compound?
The ED50 was 0.1 mg/kg.

And the ED50 [2]?
Its ED50 is 0.09 mg/kg.

What about the Occurrence of emesis (Beagle dogs) of the same compound?
The Occurrence of emesis was “no observation for emetic actions”.

With O=c1c2c(Cc3ccccc3)n[nH]c2c2cccnc2n1-c1ccccc1 [Example No. 9, 3-benzyl-5-phenyl-1H-pyrazolo[4,3-c][1,8]naphthyridin-4 (5H)-one] as the compound, how does the ED50 [1] read?
Its ED50 is 0.16 mg/kg.

What about the ED50 (TNF-α production) of the same compound?
Its ED50 is 0.22 mg/kg.

And the ED50 [2]?
The ED50 was 0.12 mg/kg.

What about the “Abnormality in other parameters” value (ICR mice) of the same compound?
Its value is “no abnormality was observed”.

What about the Body weight gain (ICR mice) of the same compound?
The Body weight gain was “No reduction of body weight gains was observed”.

What about the Mortality (ICR mice) of the same compound?
Its Mortality is “None of the animals were died”.

And the Occurrence of emesis (Beagle dogs)?
Its Occurrence of emesis is “no observation for emetic actions”.

Reference: patent US7608716B2, “Pyrazolonaphthyridine derivative” (Aska Pharmaceutical Co., Ltd., priority 2002, dated 2009)
